Experimental findings from ChEMBL document CHEMBL1201862, “PubChem BioAssay data set” (2004) are described below.

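Results reflect a 48-hour exposure of cells in 96-well plates to compound at five concentrations. At the GI50, growth is halved.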 Calls of active or inactive are those of the source. Rule as the data show it: active = GI50 up to about 1.1 µM and inactive = higher.

Among the test systems are ACHN; EKVX; HCT-116; HCT-15; MDA-MB-231; MDA-N; Malme-3M; NCI-H522; OVCAR-3; OVCAR-5; PC-3; SK-MEL-28; SNB-19; SNB-75; TK-10; U-251; UACC-257; UACC-62; UO-31.
Holding throughout (assay): DTP human tumour cell line panel, 48 h

As usually defined, the GI50 is the concentration at which growth is held to half of that of the control. In the case of `COc1cc2c(cc1OC)C1C(O)C(OC)C=C3CC[N+](C)(C2)C31` (stereo not given), the GI50 was > 100 µM (inactive) with ACHN; > 100 µM (inactive) in the assay on EKVX; > 100 µM (inactive) in the assay with HCT-116; greater than 100 µM with HCT-15; > 100 µM (inactive) in the assay with MDA-MB-231; > 100 µM (inactive) with MDA-N. Also, the GI50 in the assay on Malme-3M, in the assay on NCI-H522, with OVCAR-3, with OVCAR-5, with PC-3 and in the assay with SK-MEL-28 was > 100 µM (inactive) in each case. Also, the GI50 with SNB-19, in the assay with SNB-75, with TK-10, with U-251, with UACC-257 and with UACC-62 was > 100 µM (inactive) each time. Moreover, in the assay on UO-31, the GI50 is > 100 µM (inactive).
Regarding `O=C(O)C(Cc1c[nH]cn1)N1C(=O)c2ccccc2C1=O` (stereo not given), the GI50 in the assay on ACHN was > 100 µM (inactive); in the assay with EKVX, > 100 µM (inactive); in the assay with HCT-116, > 100 µM (inactive); with HCT-15, greater than 100 µM; in the assay with MDA-MB-231, 38 µM (inactive); in the assay on MDA-N it was > 100 µM (inactive). Also, the GI50 was 18.9 µM (inactive) with Malme-3M; > 100 µM (inactive) with NCI-H522; 50.5 µM (inactive) with OVCAR-3; > 100 µM (inactive) in the assay with OVCAR-5; 18.9 µM (inactive) in the assay with PC-3; > 100 µM (inactive) with SK-MEL-28. In addition, the GI50 with SNB-19, in the assay on SNB-75, in the assay with TK-10, in the assay with U-251, in the assay on UACC-257 and in the assay on UACC-62 was > 100 µM (inactive) throughout. Moreover, the GI50 with UO-31 is > 100 µM (inactive).
In the case of `CC(=O)OCC1OC(OC(C)=O)C(Nc2ncc(-c3ccc(C)cc3)s2)C(OC(C)=O)C1OC(C)=O` (stereo not given), the GI50 with ACHN is 14.6 µM (inactive); in the assay on EKVX it was 14.3 µM (inactive); with HCT-116, 16.4 µM (inactive); in the assay on HCT-15, 22.5 µM; in the assay on MDA-MB-231, 19.9 µM (inactive); with MDA-N, 18.4 µM (inactive). Besides, the GI50 in the assay on Malme-3M was 21.2 µM (inactive); in the assay on NCI-H522 it was 15.7 µM (inactive); in the assay with OVCAR-3 it was 19.3 µM (inactive); in the assay with OVCAR-5, 43.1 µM (inactive); in the assay with PC-3, 15.9 µM (inactive); in the assay with SK-MEL-28, 17.4 µM (inactive). The GI50 is 21.4 µM (inactive) in the assay on SNB-19; 15.5 µM (inactive) with SNB-75; 18.8 µM (inactive) in the assay with TK-10; 17 µM (inactive) in the assay with U-251; 20.1 µM (inactive) in the assay on UACC-257; 14.4 µM (inactive) in the assay with UACC-62. The GI50 in the assay on UO-31 is 14.7 µM (inactive).
Regarding `CN(/N=C/c1ccccn1)C1=NCCCN1`, the GI50 in the assay with ACHN is > 100 µM (inactive); with EKVX it was > 100 µM (inactive); in the assay on HCT-116, > 100 µM (inactive); with HCT-15 it was greater than 100 µM; in the assay with MDA-MB-231, > 100 µM (inactive); with MDA-N it was > 100 µM (inactive). For the same compound, the GI50 in the assay on Malme-3M, with NCI-H522, with OVCAR-3, in the assay on OVCAR-5, with PC-3 and with SK-MEL-28 was > 100 µM (inactive) each time. The GI50 with SNB-19, in the assay on SNB-75, in the assay with TK-10, in the assay on U-251, in the assay on UACC-257 and with UACC-62 was > 100 µM (inactive) each time. Also, the GI50 in the assay on UO-31 was > 100 µM (inactive).
Turning to `N#Cc1c(N2CCCC2)nsc1NCc1ccccc1`, the GI50 with ACHN is 91 µM (inactive); in the assay on EKVX, > 100 µM (inactive); with HCT-116, > 100 µM (inactive); in the assay with HCT-15 it was greater than 100 µM; in the assay on MDA-MB-231, > 100 µM (inactive); with MDA-N it was > 100 µM (inactive). The GI50 in the assay on Malme-3M, with NCI-H522, in the assay with OVCAR-3, in the assay on OVCAR-5, with PC-3 and in the assay on SK-MEL-28 was > 100 µM (inactive) throughout. Further, the GI50 is > 100 µM (inactive) in the assay on SNB-19; > 100 µM (inactive) in the assay with SNB-75; > 100 µM (inactive) in the assay on TK-10; > 100 µM (inactive) with U-251; > 100 µM (inactive) with UACC-257; 75.2 µM (inactive) with UACC-62. The GI50 in the assay on UO-31 was 4.14 µM (inactive).
As for `O=C(O)C1C2CCC(C2)C1c1ccccc1` (stereo not given), the GI50 with ACHN is > 100 µM (inactive); with EKVX, > 100 µM (inactive); with HCT-116, > 100 µM (inactive); in the assay with HCT-15, greater than 100 µM; in the assay with MDA-MB-231, > 100 µM (inactive); in the assay on MDA-N, > 100 µM (inactive). The GI50 in the assay on Malme-3M, in the assay on NCI-H522, in the assay on OVCAR-3, in the assay on OVCAR-5, in the assay on PC-3 and with SK-MEL-28 was > 100 µM (inactive) in each case. In addition, the GI50 in the assay with SNB-19, in the assay with SNB-75, in the assay with TK-10, in the assay with U-251, in the assay with UACC-257 and in the assay with UACC-62 was > 100 µM (inactive) throughout. Besides, the GI50 in the assay on UO-31 was > 100 µM (inactive).
`[O-]c1c2cc(-[n+]3c(-c4ccccc4)cc(-c4ccccc4)cc3-c3ccccc3)cc1CO[C@@H](c1ccccc1)[C@H](c1ccccc1)OCCOCCO[C@@H](c1ccccc1)[C@H](c1ccccc1)OC2`: the 50% growth inhibitory concentration (GI50) in the assay with ACHN was 0.167 µM (active); in the assay with EKVX, 0.109 µM (active); in the assay on HCT-116, 0.0362 µM (active); in the assay with HCT-15, 0.319 µM; with MDA-MB-231, 0.104 µM (active); in the assay with MDA-N, 0.0426 µM (active). Besides, the GI50 was 0.0407 µM (active) in the assay with Malme-3M; 0.0264 µM (active) with NCI-H522; 0.0324 µM (active) with OVCAR-3; 0.453 µM (active) in the assay with OVCAR-5; 0.039 µM (active) in the assay on PC-3; 0.475 µM (active) with SK-MEL-28. Besides, the GI50 was 0.0489 µM (active) with SNB-19; 0.0486 µM (active) in the assay with SNB-75; 0.24 µM (active) in the assay with TK-10; 0.0297 µM (active) in the assay with U-251; 0.106 µM (active) in the assay on UACC-257; 0.0577 µM (active) in the assay on UACC-62. In the assay on UO-31, the concentration for 50% growth inhibition (GI50) was 0.379 µM (active).
Take `CC(=O)N/N=C1\NC(=O)C[C@H]2[C@@H]3CC=C4C[C@@H](OC(C)=O)CC[C@]4(C)[C@H]3CC[C@]12C`: the GI50 in the assay on ACHN is 21.5 µM (inactive); in the assay on EKVX, 36.1 µM (inactive); in the assay on HCT-116 it was 67 µM (inactive); in the assay with HCT-15, 38.2 µM; in the assay with MDA-MB-231, 18.7 µM (inactive); in the assay on MDA-N, 7.16 µM (inactive). Also, the GI50 in the assay on Malme-3M is 39.1 µM (inactive); with NCI-H522, 32.1 µM (inactive); with OVCAR-3, > 100 µM (inactive); in the assay on OVCAR-5, > 100 µM (inactive); in the assay on PC-3, 29.9 µM (inactive); in the assay on SK-MEL-28, 13.4 µM (inactive). The GI50 with SNB-19 is 17.4 µM (inactive); with SNB-75, 20.9 µM (inactive); with TK-10, 17.1 µM (inactive); with U-251, 12.8 µM (inactive); in the assay on UACC-257 it was 18.7 µM (inactive); in the assay with UACC-62, 16.8 µM (inactive). The GI50 in the assay on UO-31 is 40.6 µM (inactive).
Regarding `O=C(c1cc2c(c3ccccc13)NC1(CCCCC1)N=C2C(F)(F)F)C(F)(F)F`, the GI50 was 3.63 µM (inactive) in the assay on ACHN; 4.82 µM (inactive) with EKVX; 3.3 µM (inactive) with HCT-116; 5.07 µM with HCT-15; 3.14 µM (inactive) in the assay on MDA-MB-231; 3.72 µM (inactive) in the assay on MDA-N. Besides, the GI50 with Malme-3M was 5.27 µM (inactive); in the assay with NCI-H522 it was 2.65 µM (inactive); in the assay on OVCAR-3, 2.85 µM (inactive); with OVCAR-5, 8.83 µM (inactive); in the assay with PC-3, 3.68 µM (inactive); in the assay on SK-MEL-28, 9.1 µM (inactive). In addition, the GI50 is 5.4 µM (inactive) in the assay on SNB-19; 4.7 µM (inactive) in the assay with SNB-75; 4.01 µM (inactive) in the assay with TK-10; 3.78 µM (inactive) in the assay with U-251; 3.17 µM (inactive) in the assay with UACC-257; 3.78 µM (inactive) in the assay on UACC-62. Besides, the GI50 in the assay with UO-31 was 3.62 µM (inactive).
As to `C/C(=N/NC(=S)N(C)CCc1ccccn1)c1cnccn1`, the concentration for 50% growth inhibition (GI50) in the assay with ACHN is < 0.01 µM (active); with EKVX, < 0.01 µM (active); in the assay on HCT-116 it was < 0.01 µM (active); with HCT-15 it was less than 0.01 µM; in the assay with MDA-MB-231, < 0.01 µM (active); in the assay on MDA-N, 0.828 µM (active). For the same compound, the GI50 in the assay on Malme-3M is < 0.01 µM (active); in the assay with NCI-H522 it was < 0.01 µM (active); with OVCAR-3 it was < 0.01 µM (active); in the assay with OVCAR-5 it was 0.516 µM (active); in the assay with PC-3 it was < 0.01 µM (active); in the assay on SK-MEL-28, 0.933 µM (active). Also, the GI50 is 0.437 µM (active) in the assay with SNB-19; 4.19 µM (inactive) with SNB-75; < 0.01 µM (active) in the assay with TK-10; < 0.01 µM (active) with U-251; < 0.015 µM (active) in the assay with UACC-257; 0.0986 µM (active) with UACC-62. For the same compound, the GI50 in the assay on UO-31 was < 0.0182 µM (active).
